Measurements published in patent publication US12030908B2, “Antimicrobial compounds, compositions, and uses thereof” (Lakewood Amedex, Inc., priority 2017, dated 2024).

Test system: E. coli ATCC25922
Experiment: Urinary tract infection model in rats, transurethral treatment (Example 11)
Assay type: in vivo, Sprague-Dawley rats
Details: 60 min
Procedure: Female Sprague-Dawley rats (n=6/group) are intraurethrally infected with the predetermined inoculum size of E. coli. At the specified time following infection with (depending on the in vivo growth curve), the animals are anaesthetized (ketamine/xylazine) and treated by transurethral administration with neutral saline (group 1), saline pH 3.5 adjusted with phosphoric acid (group 2), test compound Nu-8 pH 3.5 at 103 and 207 mg/kg (groups 3 and 4, respectively). When adjusting pH, the volume of phosphoric acid added are monitored and the final concentration of the pH adjusted dose solution are subsequently determined. The goal is to have the final concentration after pH adjustment within 10% of the desired dose so the final concentration after pH adjustment are reported. Volume of administration will be 300 μL. TABLE 9 (Animal Challenge and Treatment Schedule) summarizes the study groups.
Two hours prior to each infection animals are water deprived. Each animal is infected twice with 24 hrs difference by transurethral administration of 300 μL of bacterial suspension under light ketamine and xylazine anaesthesia. Prior to infection, urine is evacuated by digital pressure, cannula is gently inserted into the bladder via urethra, and 300 μL of bacterial suspension is inserted into the bladder. […]

For `CCCCOP(=O)(O)OC[C@H]1O[C@@H](n2ccc(N)nc2=O)C[C@@H]1OP(=O)(O)OCCCC` [Nu-8, sodium ((2R,3S,5R)-5-(4-amino-2-oxopyrimidin-1(2H)-yl)-3-((butoxyoxidophosphor-yl)oxy)tetrahydrofuran-2-yl)methyl butyl phosphate], the “mean CFU log 10 per mL of bladder tissue (tissue plus urine)” value (pH 3.5, 103 mg/kg transurethral) was 5.53 Log 10 CFUs/mL bladder tissue and the “mean CFU log 10 per mL of bladder tissue (tissue plus urine)” value (pH 3.5, 207 mg/kg transurethral) was 4.60 Log 10 CFUs/mL bladder tissue.
